We go through 3 compounds from BindingDB's records for patent US20240217978 (Chong Kun Dang Pharmaceutical, 2024).

The target in this test is Adenosine receptor A2a (Homo sapiens, UniProt P29274). Briefly: Evaluation of A2a Receptor Binding Affinity. As for the experimental part: A radioligand binding test was conducted by using [3H]-NECA (5′-N-[adenine-2,8-3H]-ethylcarboxamidoadenosine) and an adenosine A2a membrane. As the adenosine A2a membrane, a cell membrane prepared from HEK-293 cells transfected with human adenosine A2a receptor was used. The membrane used for the test was prepared by incubating with a radioligand until equilibrium was reached. In order to separate the radioligand-bound membrane, the unbound radioligand was separated by using Packard filtermate Harverster and glass filter plates.10 μL of test compound dissolved in binding buffer (50 mM Tris, 10 mM MgCl2, 1 mM EDTA pH 7.4) and 20 μL of [3H]-NECA (final concentration of 37 nM) or reference inhibitor was mixed with 20 μL of A2a membrane in an unbound 96-well plate and incubated at room temperature for one hour. Prior to filtration, a 96-well harvest filter plate was coated with 0.33% polyethylenimine for 30 minutes and then washed with assay buffer. The binding reaction was transferred to the filter plate and washed three times with wash buffer. The dish was then dried, scintillant was added, and radioactivity was counted in a scintillation counter (Topcount NXT, Packard).
Adenosine receptor A2a, sequence (P29274 whole entry): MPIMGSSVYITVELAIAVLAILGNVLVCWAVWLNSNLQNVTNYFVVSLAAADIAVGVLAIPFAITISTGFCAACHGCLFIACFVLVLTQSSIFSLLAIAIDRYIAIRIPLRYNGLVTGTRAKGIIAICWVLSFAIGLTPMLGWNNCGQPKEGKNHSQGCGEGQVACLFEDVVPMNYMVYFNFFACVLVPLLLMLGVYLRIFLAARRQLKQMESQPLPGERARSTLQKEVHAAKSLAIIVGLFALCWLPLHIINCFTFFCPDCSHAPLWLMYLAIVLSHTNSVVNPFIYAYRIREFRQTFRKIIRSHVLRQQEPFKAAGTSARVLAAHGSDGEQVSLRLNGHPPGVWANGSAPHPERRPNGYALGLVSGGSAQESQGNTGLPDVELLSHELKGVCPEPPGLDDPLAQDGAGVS
Take `CCNC(=O)N1CCN(C(=O)[C@@H]2CCCN2c2nc(N)n3nc(-c4ccco4)nc3n2)CC1` [US20240217978, Example 115]: the IC50 (in general, the point on the concentration scale where inhibition reaches its midpoint) came out at 10 nM.

As for `Nc1nc(N2CCC[C@H]2C(=O)N2CCC(C(=O)Nc3cccc(F)c3)CC2)nc2nc(-c3ccco3)nn12` [US20240217978, Example 130], the IC50 was found to be 2 nM. Against the preceding compound, the IC50 is about 5-fold lower. In the case of `Nc1nc(N2CCC[C@H]2C(=O)N2CCCN(c3ncccn3)CC2)nc2nc(-c3ccco3)nn12` [US20240217978, Example 277], the IC50 turned out to be 12 nM.
